Our source for the IC50 values is ChEMBL document CHEMBL1156737, “Terpenoids. III: Synthesis and biological evaluation of 23-hydroxybetulinic acid derivatives as novel inhibitors of glycogen phosphorylase” (Bioorg Med Chem Lett, 2009).

In one test the target is T1, Glycogen phosphorylase, muscle form (Oryctolagus cuniculus, UniProt P00489).
T1 sequence (P00489 whole entry): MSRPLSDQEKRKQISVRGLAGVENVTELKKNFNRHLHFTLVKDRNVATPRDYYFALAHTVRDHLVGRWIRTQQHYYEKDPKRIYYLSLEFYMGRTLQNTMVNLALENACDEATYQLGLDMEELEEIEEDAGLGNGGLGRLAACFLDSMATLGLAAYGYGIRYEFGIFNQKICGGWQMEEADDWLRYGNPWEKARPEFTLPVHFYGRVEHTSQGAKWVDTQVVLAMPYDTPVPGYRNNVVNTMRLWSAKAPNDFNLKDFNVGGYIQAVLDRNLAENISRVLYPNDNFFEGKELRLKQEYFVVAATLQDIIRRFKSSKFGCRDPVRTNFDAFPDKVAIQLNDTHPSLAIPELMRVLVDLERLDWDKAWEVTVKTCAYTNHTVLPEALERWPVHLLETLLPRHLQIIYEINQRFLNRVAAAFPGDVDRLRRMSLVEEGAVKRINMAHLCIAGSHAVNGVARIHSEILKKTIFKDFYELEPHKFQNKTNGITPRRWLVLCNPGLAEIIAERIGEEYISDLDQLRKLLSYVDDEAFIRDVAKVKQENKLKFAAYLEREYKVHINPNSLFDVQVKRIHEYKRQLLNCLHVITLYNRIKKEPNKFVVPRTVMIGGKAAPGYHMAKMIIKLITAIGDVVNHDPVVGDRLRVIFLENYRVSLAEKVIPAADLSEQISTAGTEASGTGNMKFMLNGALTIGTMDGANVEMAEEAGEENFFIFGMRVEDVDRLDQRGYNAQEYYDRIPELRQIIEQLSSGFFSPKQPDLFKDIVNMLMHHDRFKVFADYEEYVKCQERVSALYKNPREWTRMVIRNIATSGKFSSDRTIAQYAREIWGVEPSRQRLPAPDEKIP
The test is described as follows: Inhibition of rabbit muscle glycogen phosphorylase A assessed as release of phosphate from glucose-1-phosphate after 25 mins.
Settings: not given; call rule not given here
As for `C=C(C)[C@@H]1CC[C@]2(C(=O)NCCCC)CC[C@]3(C)[C@H](CC[C@@H]4[C@@]5(C)CC[C@H](OC(=O)C(=O)NCCCC)[C@@](C)(COC(=O)C(=O)NCCCC)[C@@H]5CC[C@]43C)[C@@H]12`, the IC50 result is on record as “Not Active”.

The test is the same for the next values; noted with them: read-out: IC50.
`C=C(C)[C@@H]1CC[C@]2(COC(=O)C(=O)OC)CC[C@]3(C)[C@H](CC[C@@H]4[C@@]5(C)CC[C@H](OC(=O)C(=O)OC)[C@@](C)(COC(=O)C(=O)OC)[C@@H]5CC[C@]43C)[C@@H]12`: the IC50 came to 30.1 µM.
The same measure, in the same setting: under `C=C(C)[C@@H]1CC[C@]2(COC(=O)C(=O)OCC#CCO)CC[C@]3(C)[C@@H](CC[C@@H]4[C@@]5(C)CC[C@H](OC(=O)C(=O)OCC#CCO)[C@@](C)(COC(=O)C(=O)OCC#CCO)[C@@H]5CC[C@]43C)C12` (some centres undefined) stands 19.1 µM.
As to `C=C(C)[C@@H]1CC[C@]2(C(=O)O)CC[C@]3(C)[C@H](CC[C@@H]4[C@@]5(C)CC[C@H](O)[C@@](C)(CO)[C@@H]5CC[C@]43C)[C@@H]12`, the IC50 worked out at 103 µM.
As to `C=C(C)[C@@H]1CC[C@]2(C(=O)NCCCN)CC[C@]3(C)[C@H](CC[C@@H]4[C@@]5(C)CC[C@H](O)[C@@](C)(CO)[C@@H]5CC[C@]43C)[C@@H]12`, the IC50 was 23.8 µM.
Still for that read-out and setting: with `C=C(C)[C@@H]1CC[C@]2(C(=O)NCC(=O)N[C@@H](Cc3ccccc3)C(=O)O)CC[C@]3(C)[C@H](CC[C@@H]4[C@@]5(C)CC[C@H](O)[C@@](C)(CO)[C@@H]5CC[C@]43C)[C@@H]12` the figure was 129 µM; with `C=C(C)[C@@H]1CC[C@]2(C(=O)OCCCCCC)CC[C@]3(C)[C@H](CC[C@@H]4[C@@]5(C)CC[C@H](O)[C@@](C)(CO)[C@@H]5CC[C@]43C)[C@@H]12`, 69.1 µM; with `C=C(C)[C@@H]1CC[C@]2(COC(=O)C(=O)NCCCC)CC[C@]3(C)[C@H](CC[C@@H]4[C@@]5(C)CC[C@H](OC(=O)C(=O)NCCCC)[C@@](C)(COC(=O)C(=O)NCCCC)[C@@H]5CC[C@]43C)[C@@H]12`, 34.7 µM.
With `C=C(C)[C@@H]1CC[C@]2(C(=O)NCCCCCCNC(C)=O)CC[C@]3(C)[C@H](CC[C@@H]4[C@@]5(C)CC[C@H](OC(C)=O)[C@@](C)(COC(C)=O)[C@@H]5CC[C@]43C)[C@@H]12`, the IC50 was determined as 34.1 µM.
Take `C=C(C)[C@@H]1CC[C@]2(C(=O)NCCCCCCN)CC[C@]3(C)[C@H](CC[C@@H]4[C@@]5(C)CC[C@H](OC(C)=O)[C@@](C)(COC(C)=O)[C@@H]5CC[C@]43C)[C@@H]12`: the IC50 was 3.5 µM.
As for `C=C(C)[C@@H]1CC[C@]2(C(=O)NCCCCCCN)CC[C@]3(C)[C@H](CC[C@@H]4[C@@]5(C)CC[C@H](O)[C@@](C)(CO)[C@@H]5CC[C@]43C)[C@@H]12`, the IC50 came to 10.2 µM.
Same read-out and setting: with `C=C(C)[C@@H]1CC[C@]2(C(=O)OCCN(CCCCCCNC(C)=O)C(C)=O)CC[C@]3(C)[C@H](CC[C@@H]4[C@@]5(C)CC[C@H](OC(C)=O)[C@@](C)(COC(C)=O)[C@@H]5CC[C@]43C)[C@@H]12` the figure was 96.6 µM; with `C=C(C)[C@@H]1CC[C@]2(C(=O)OCCCCCCOC(=O)c3ccccc3C(=O)O)CC[C@]3(C)[C@H](CC[C@@H]4[C@@]5(C)CC[C@H](OC(C)=O)[C@@](C)(COC(C)=O)[C@@H]5CC[C@]43C)[C@@H]12`, 69.2 µM.
Regarding `C=C(C)[C@@H]1CC[C@]2(C(=O)NCCCCCCN(CC)CC)CC[C@]3(C)[C@H](CC[C@@H]4[C@@]5(C)CC[C@H](OC(C)=O)[C@@](C)(COC(C)=O)[C@@H]5CC[C@]43C)[C@@H]12`, the IC50 is 55.6 µM.
The same measure, in the same setting: under `C=C(C)[C@@H]1CC[C@]2(C(=O)NCCCN(CC)CC)CC[C@]3(C)[C@H](CC[C@@H]4[C@@]5(C)CC[C@H](OC(C)=O)[C@@](C)(COC(C)=O)[C@@H]5CC[C@]43C)[C@@H]12` stands 72.8 µM; under `C=C(C)[C@@H]1CC[C@]2(C(=O)OCCBr)CC[C@]3(C)[C@H](CC[C@@H]4[C@@]5(C)CC[C@H](O)[C@@](C)(CO)[C@@H]5CC[C@]43C)[C@@H]12`, 289 µM; under `C=C(C)[C@@H]1CC[C@]2(COC(=O)C(=O)NC(C)C)CC[C@]3(C)[C@H](CC[C@@H]4[C@@]5(C)CC[C@H](OC(=O)C(=O)NC(C)C)[C@@](C)(COC(=O)C(=O)NC(C)C)[C@@H]5CC[C@]43C)[C@@H]12`, 35.9 µM.
As for `C=C(C)[C@@H]1CC[C@]2(C(=O)NCC(=O)OC)CC[C@]3(C)[C@H](CC[C@@H]4[C@@]5(C)CC[C@H](OC(C)=O)[C@@](C)(COC(C)=O)[C@@H]5CC[C@]43C)[C@@H]12`, the IC50 amounted to 103 µM.
Same read-out and setting: under `C=C(C)[C@@H]1CC[C@]2(C(=O)NCCCCCCNC(=O)/C=C/C(=O)O)CC[C@]3(C)[C@H](CC[C@@H]4[C@@]5(C)CC[C@H](OC(C)=O)[C@@](C)(COC(C)=O)[C@@H]5CC[C@]43C)[C@@H]12` stands 54.8 µM.
On to `C=C(C)[C@@H]1CC[C@]2(C(=O)NCC(=O)O)CC[C@]3(C)[C@H](CC[C@@H]4[C@@]5(C)CC[C@H](O)[C@@](C)(CO)[C@@H]5CC[C@]43C)[C@@H]12`, for which the IC50 came to 67.7 µM.
As for `C=C(C)[C@@H]1CC[C@]2(COC(=O)CCC(=O)O)CC[C@]3(C)[C@H](CC[C@@H]4[C@@]5(C)CC[C@H](OC(=O)CCC(=O)O)[C@@](C)(COC(=O)CCC(=O)O)[C@@H]5CC[C@]43C)[C@@H]12`, the IC50 is 97.8 µM.
The same measure, in the same setting: with `C=C(C)[C@@H]1CC[C@]2(C(=O)NCC(=O)N[C@@H](Cc3ccccc3)C(=O)OC)CC[C@]3(C)[C@H](CC[C@@H]4[C@@]5(C)CC[C@H](O)[C@@](C)(CO)[C@@H]5CC[C@]43C)[C@@H]12` the figure was 40.6 µM.
Consider `C=C(C)[C@@H]1CC[C@]2(COC(C)=O)CC[C@]3(C)[C@H](CC[C@@H]4[C@@]5(C)CC[C@H](OC(C)=O)[C@@](C)(COC(C)=O)[C@@H]5CC[C@]43C)[C@@H]12`, for which the IC50 turned out to be 143 µM.
The same measure, in the same setting: with `C=C(C)[C@@H]1CC[C@]2(C(=O)NCCCN)CC[C@]3(C)[C@H](CC[C@@H]4[C@@]5(C)CC[C@H](OC(C)=O)[C@@](C)(COC(C)=O)[C@@H]5CC[C@]43C)[C@@H]12` the figure was 15.2 µM; with `C=C(C)[C@@H]1CC[C@]2(C(=O)OC3CCCCC3)CC[C@]3(C)[C@H](CC[C@@H]4[C@@]5(C)CC[C@H](O)[C@@](C)(CO)[C@@H]5CC[C@]43C)[C@@H]12`, 50.4 µM.
The same measure, in the same setting: with `C=C(C)[C@@H]1CC[C@]2(C(=O)OCC#CCOC(=O)CCC(=O)O)CC[C@]3(C)[C@H](CC[C@@H]4[C@@]5(C)CC[C@H](OC(C)=O)[C@@](C)(COC(C)=O)[C@@H]5CC[C@]43C)[C@@H]12` the figure was 94.5 µM; with `C=C(C)[C@@H]1CC[C@]2(C(=O)NCCCCCCNCC)CC[C@]3(C)[C@H](CC[C@@H]4[C@@]5(C)CC[C@H](OC(C)=O)[C@@](C)(COC(C)=O)[C@@H]5CC[C@]43C)[C@@H]12`, 29.5 µM.
On to `C=C(C)[C@@H]1CC[C@]2(C(=O)NCCCCCCNC(=O)CCC(=O)O)CC[C@]3(C)[C@H](CC[C@@H]4[C@@]5(C)CC[C@H](OC(C)=O)[C@@](C)(COC(C)=O)[C@@H]5CC[C@]43C)[C@@H]12`, for which the half-maximal inhibitory concentration (IC50) amounted to 194 µM.
The same measure, in the same setting: with `C=C(C)[C@@H]1CC[C@]2(C(=O)OCC#CCO)CC[C@]3(C)[C@H](CC[C@@H]4[C@@]5(C)CC[C@H](O)[C@@](C)(CO)[C@@H]5CC[C@]43C)[C@@H]12` the figure was 194 µM.
